Results: patent publication US10973763B2, “Inhalable pharmaceutical compositions” (Berg LLC, priority 2011, dated 2021)
“And” between values parts separate entries of the source, which are not always exact repeats. Equal values may be shown once.

Tests used:
[1] = Particle size distribution by laser diffraction (LD); format: physicochemical; conditions: bulk CoQ10 powder
Method: Bulk CoQ10 powder was dispersed in 20% (v/v) 1,3-propanediol in deionized water for analysis of particle size distribution. This dispersed sample was then added to a small cell apparatus in a Malvern Mastersizer S® instrument (Malvern Instruments, Worcestershire, UK) equipped with a 300 mm lens until 5-10% obscuration was attained. The internal phase and dispersant refractive indexes were 1.45 and 1.33, respectively.
Particle size distribution testing of the dispersed formulations was performed with LD using a wet sample dispersion unit stirring at 1,000 rpm coupled to a Malvern Spraytec® (Malvern Instruments, Worcestershire, UK) equipped with a 300 mm lens. The dispersed formulations were added to distilled water (dispersant) until approximately 5% laser obscuration was attained. The internal phase and dispersant refractive indexes were set as 1.45 and 1.33, respectively. […] Span is a measurement of particle size distribution calculated as [Dv(90)−[…]]/Dv(50)]. […]
Particle size distribution testing of the dispersed formulations was performed with LD using a wet sample dispersion unit stirring at 1,000 rpm coupled to a Malvern Spraytec® (Malvern Instruments, Worcestershire, UK) equipped with a 300 mm lens. […] Span is the measurement of particle size distribution calculated as [Dv(90)−Dv(10)]/Dv(50)]. […]

[2] = CoQ10 level in lung tissue after nose-only aerosol dosing; format: in vivo, mice
Method: (§1) Animals were caged in groups of 4 and maintained on a normal rodent chow diet with free access to water. Prior to dosing, CD-1® IGS ICR mice (Charles River Laboratories International, Inc., Wilmington, Mass., USA) were individually acclimatized for approximately 10 minutes per day for 3 days into restraint tubes, restricted by an anterior nose insert and a posterior holder. The dosing apparatus was placed inside a fume hood to collect escaping aerosol containing drug. To avoid influence from the airflow provided by the fume hood, an erlenmeyer container was placed at the end of the tubing system as a buffer. The airflow rate was set to 1 L/min to ensure proper drug aerosolization into the nose-only chamber (internal volume: 230 mL; diameter: 3.8 cm; length: 20.3 cm) using an Aeroneb Pro® vibrating-mesh nebulizer (Aerogen, Galway, Ireland). Following preparation, all formulations (saline control, DMPC, DPPC, and DSPC) were dosed for 15 minutes to mice weighing from 23 to 33 g each, at time of dosing. Each single-dose studied group consisted of thirty-six male animals. At each time point (0.5, 1, 3, 8, 24, and 48 hours after the end of the aerosolization event) six animals randomly selected from different dosing events of the same formulation were sacrificed by narcosis with carbon dioxide. As part of the collection process, blood was withdrawn by cardiac puncture, lungs were harvested, and a nasal wash was performed. […]
For each experiment, CoQ10 levels were determined after liquid extraction using liquid chromatography coupled with tandem mass spectrometry (LC-MS/MS). […]
Samples were tested for normality using the Shapiro Wilk test (p<0.05) and outliers were excluded from data analysis. Pharmacokinetic parameters were determined using Microsoft Office Excel 2007 software (Redmond, Wash.) with the add-in program PKSolver. […] At each time point, lung tissue samples were analyzed for statistical differences among different groups with One-Way ANOVA for significance (p<0.05). […]

mice = assay: Survival and health of mice after nebulization event; format: in vivo; conditions: 48 hours after the end of the nebulization event
Method: as §1, with “dioxide.” for “dioxide. As part of the collection process, blood was withdrawn by cardiac puncture, lungs were harvested, and a nasal wash was performed.”

IL-12 = assay: Inflammatory response: BAL supernatant ELISA for IL-12; format: in vivo, mice; conditions: pulmonary administration
Method: The inflammatory response to the administration of hydrophobic bioactive agents (e.g., as discussed in connection with Example 1-3 above) was measured. Surgery is performed on sacrificed mice to expose the pleural cavity and trachea at the throat. […] An aliquot (about 0.75 mL) of phosphate buffered saline is instilled through the cannula into the lungs and removed to wash the bronchial and alveolar surfaces. This process is repeated for a total of three washes. The phosphate buffered saline containing cells is placed into centrifuge vials and centrifuged at about 3000 rpm (MiniSpin Plus, Eppendorf International, Hamburg, Del.). The supernatant is removed leaving the collected cells in the pellet. The supernatant from the BAL (Bronchoalveolar Lavage) is analyzed by enzyme-linked immunosorbent assay (ELISA) for IL-12 elevation (n=2 per sample tested).

[3] = Drug loading suitable for continuous nebulization (Example 5); format: physicochemical; conditions: 15-minute nebulization, Aeroneb Pro, DMPC 2.5% w/w
Method: Formulations were prepared based upon the general methods discussed in connection with Examples 1 and 2. For this study, specific dispersions were prepared with 50 microfluidization discrete passes using 2.5% w/w of dimyristoyl phosphatidylcholine (DMPC) and 7.5%, 7.0%, 6.0%, 5.0%, or 4.0% w/w of CoQ10. The dispersions were then aerosolized within 24 hour using an Aeroneb Pro® nebulizer for 15 minute aerosolization event. The aerosolization profile was monitored via analysis of Total Aerosol Output (TAO) and using laser diffraction with a Malvern Spraytec® coupled with an inhalation cell as described above.

[4] = previous studies, same nebulizer

For `COC1=C(OC)C(=O)C(C/C=C(\C)CC/C=C(\C)CC/C=C(\C)CC/C=C(\C)CC/C=C(\C)CC/C=C(\C)CC/C=C(\C)CC/C=C(\C)CC/C=C(\C)CCC=C(C)C)=C(C)C1=O` [CoQ10, Coenzyme Q10], the “Dv(50) / particle size” value [1] was 30 μm and 29.87 μm, the “time CoQ10 stays in the lungs at relatively high concentrations” value ([2]; after 15-minute aerosol dosing) was “up to 48 hours” and the “lung Cmax relative to cyclosporine A dispersions” value [2, 4] was at most 75 fold. The “lung Cmax relative to itraconazole dispersions” value [2, 4] was at most 165 fold, the “survival and health of mice” value (mice) was “all mice were alive and presenting healthy signs” and the “IL-12 levels in BAL supernatant” value (IL-12; ELISA) was “not associated with a rise in IL-12 levels”. The lung inflammation (IL-12) was “does not cause lung inflammation” and the “maximum nominal drug loading without intermittent mist” value [3] was 4 % w/w.
